Experiments:
[1] = Solubility in vehicles for i.v. drug delivery; assay type: physicochemical
acid ceramidase (AC) = biological target: T1, acid ceramidase (AC) (Homo sapiens, UniProt Q13510); assay: Acid ceramidase activity assay (RBM14C12 fluorogenic substrate) in human AML cell lines; assay type: cell-based; conditions: SACLAC 2.5 μM, 24-hour treatment
T1 construct: endogenous in cells; host or cells: HL-60/VCR, THP-1 and OCI-AML2 human AML cell lines
T1 sequence (Q13510 143-395 limits assumed): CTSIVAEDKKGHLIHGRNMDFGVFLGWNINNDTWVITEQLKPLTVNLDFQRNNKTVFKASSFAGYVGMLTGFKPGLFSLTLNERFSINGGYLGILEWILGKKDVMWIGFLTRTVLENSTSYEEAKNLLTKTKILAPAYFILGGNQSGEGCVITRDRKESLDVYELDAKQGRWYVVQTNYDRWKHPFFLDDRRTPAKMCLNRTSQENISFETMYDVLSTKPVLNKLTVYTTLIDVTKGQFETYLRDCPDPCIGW
T1 sequence (Q13510 22-142 limits assumed): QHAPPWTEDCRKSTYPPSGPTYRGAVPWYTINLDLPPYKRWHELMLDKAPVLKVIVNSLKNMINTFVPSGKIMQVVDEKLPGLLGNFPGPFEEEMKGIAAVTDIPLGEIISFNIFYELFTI
Method: Cells were seeded at 2×10^4 cells per well in 50 μl Acid ceramidase activity was measured at 24 hours using the RBM14C12 fluorogenic substrate as previously described (22,34).

normal CD34+ cells = assay: Cell viability of normal samples ([…]-GLO); assay type: cell-based; conditions: Homo sapiens; CD34+ (n=4); 24 hours
Source text: (§1) Healthy donor samples: PBMCs from healthy donors were enriched using the Ficoll-Paque gradient separation method. CD34+PBMCs mobilized with G-CSF were obtained from the University of Virginia Health System Blood Bank (Charlottesville, Va., United States of America). CD34+ cells were isolated from PBMCs with a Human CD34 MicroBead Kit (#130-046, Miltenyi Biotec, Bergisch Gladbach, Germany) using the autoMACS Pro Separator (#130-092-545, Miltenyi Biotec, Bergisch Gladbach, Germany). For cell viability, cell lines were plated at 2.5×10^4 cells per well in a 96-well plate and treated with […] or DMSO vehicle (0.4% of total volume) for the indicated time points and doses. […] Conversion of MTS to formazan product was measured by absorbance at 490 nm using a BioTek Cytation 3 plate reader (BioTeck, Winooski, Vt., United States of America). Absorbance was normalized to DMSO control, which was defined as 100% viability. […] After 15 minutes, luminescence was read on a BioTek Cytation 3 plate reader (BioTek, Winooski, Vt., United States of America). Absorbance was normalized to DMSO control, which was defined as 100% viability.

[2] = system: PBMCs from healthy donors; assay: Cell viability of normal samples ([…]-GLO); assay type: cell-based; conditions: Homo sapiens, PBMC; PBMCs (n=6); 24 hours
Source text: as §1

OCI-AML2 cells = assay: Mitochondrial membrane potential (Muse MitoPotential Kit); assay type: cell-based, human; conditions: SACLAC 5 μM; time course
Method: (§2) Apoptosis in cell lines was assessed after treating 2.5×10^5 cells per ml with drug or vehicle in a 48-well plate for the indicated time points and doses. Primary human AML cells were pre-incubated with SFEM for 48 hours before plating 2×10^5 cells in 24-well plates for the indicated times point and doses. Samples were stained using the Muse Annexin V & Dead Cell Kit (Millipore #MCH100105). Change in mitochondrial membrane potential in cell lines was measured with the Muse® MitoPotential Kit (#MCH100110, MilliporeSigma, Burlington, Mass., United States of America). Caspase activation was measured using the Muse® Caspase 3/7 Assay Kit (#MCH100108, MilliporeSigma, Burlington, Mass., United States of America). For rescue experiments, cells were plated at 2.5×10^4 well in a 96-well plate 24 hours after electroporation. Cells were treated with DMSO or […] for 48 hours and apoptosis was detected as stated above. All kits were used according to manufacturer's protocol. Cells were then analyzed using the Muse® Cell Analyzer (MilliporeSigma, Burlington, Massachusetts, United States of America) (35,36). Experiments included positive and negative controls for proper analysis.

[3] = system: primary AML patient samples; assay: Apoptosis by flow cytometry (Annexin V); assay type: cell-based, human; conditions: seven patient samples; 48-hour treatment
Method: as §2

**Q.** With `CCCCCCCCCCCCCCC[C@@H](O)[C@H](CO)NC(=O)CCl` [SACLAC, N-[(2S,3R)-1,3-dihydroxyoctadecan-2-yl]2-chloroacetamide] as the compound, how does the “solubility in vehicles for i.v. drug delivery” value [1] read?
**A.** low solubility

**Q.** And the “AC activity reduced by” value (acid ceramidase (AC); HL-60/VCR)?
**A.** 98%

**Q.** What about the “AC activity reduced by” value (acid ceramidase (AC); OCI-AML2) of the same compound?
**A.** 100%

**Q.** And the “AC activity reduced by” value (acid ceramidase (AC); THP-1)?
**A.** 71%

**Q.** What about the EC50 (normal CD34+ cells) of the same compound?
**A.** 4 µM

**Q.** What about the EC50 [2] of the same compound?
**A.** 7.4 µM

**Q.** And the “loss of mitochondrial membrane potential” value (OCI-AML2 cells)?
**A.** occurred in parallel with positive staining for the apoptosis marker annexin V

**Q.** What about the “apoptosis reached by more than half the samples” value [3] of the same compound?
**A.** ≥ 80%
